According to US20200016231A1, “BIOFILM DISRUPTING COMPOSITION” (Whiteley Corporation Pty Ltd, priority 2016, published 2020):
Like-named read-outs stand apart in the source and are kept apart here.

System: methicillin-sensitive Staphylococcus aureus
Assay: microbe, parasite or virus in culture
Type: cell-based
Conditions: MSSA
Experimental: The treatments shown in column 1 of Table 4 were tested against three strains of methicillin-sensitive Staphylococcus aureus. […] The treatments shown in column 1 of Table 12 were tested against three strains of methicillin-sensitive Staphylococcus aureus.

Compound: N[C@@H](CCC(=O)N[C@@H](CS)C(=O)NCC(=O)O)C(=O)O [GSH, glutathione]
- viability at 10000 µM (read-out: % bacterial viability, MSSA - 0800 DFU, GSH 10 mM): 82.4%
- viability at 15000 µM (read-out: % bacterial viability, MSSA - 0800 DFU, GSH 15 mM): 61.7%
- viability at 30000 µM (read-out: % bacterial viability, MSSA - 0800 DFU, GSH 30 mM): 20.1%
- viability at 10000 µM (read-out: % bacterial viability, MSSA - 34397 Left elbow, GSH 10 mM): 88.7%
- viability at 15000 µM (read-out: % bacterial viability, MSSA - 34397 Left elbow, GSH 15 mM): 61.3%
- viability at 30000 µM (read-out: % bacterial viability, MSSA - 34397 Left elbow, GSH 30 mM): 1.06%
- viability at 10000 µM (read-out: % bacterial viability, MSSA - 34654 Right toe, GSH 10 mM): 86.1%
- viability at 15000 µM (read-out: % bacterial viability, MSSA - 34654 Right toe, GSH 15 mM): 70.5%
- viability at 30000 µM (read-out: % bacterial viability, MSSA - 34654 Right toe, GSH 30 mM): 15.3%
